Read-outs that look alike come from different tables or passages of the source. One block for each compound: values may come before it.
Columns and labels:
[1] = test system: NCI-H2030 cells; assay: 3D-TGA; assay type: cell-based, human; conditions: read-out: IC50 in 3D-TGA Ifebemetinib; NCI-H2030, LUN, KRAS G12C; agent alone
Description: (§1) Cells were seeded in 3D cultures in a black-walled, clear-bottom, non-tissue culture treated, 384-well plate (3000 cells per well) using a 1:1 mixture of BME and a custom media and grown in a humidified incubator with 5% CO2 and 5% O2, which approximates capillary levels for each gas, at 37° C. […] Cells were assessed for cell proliferation using EdU cell proliferation staining. […] Cells were permeabilized with 30 μL of filtered 0.5% Triton X-100 in PBS for 20 minutes at room temperature. Samples were washed twice gently with PBS. Cells were stained utilizing click-iT chemistry by adding 20 μL of staining cocktail containing 2 mM copper sulfate, 8 μM sulfo-Cy5-azide, and 20 mg/ml ascorbic acid in PBS and incubated 30-60 minutes at room temperature in dark. […] Plates were imaged with the Molecular Devices Pico ImageXpress. Images were segmented and percentage of cells with EdU incorporation was quantified to calculate antiproliferative effects of the drugs.
(§2) Five (5)-ethynyl-2′-deoxyuridine (EdU) data was represented as percentage EdU positive cells quantified by high content imaging from the Molecular Devices ImageXpress® Pico.

[2] = test system: AsPC-1 cells; assay: 3D-TGA; assay type: cell-based, human; conditions: AsPC-1, PAN, KRAS G12D
Description: as §1, §2

[3] = test system: A-427 cells; assay: 3D-TGA; assay type: cell-based, human; conditions: read-out: IC50 in 3D-TGA Ifebemetinib; A-427, LUN, KRAS G12D; agent alone
Description: as §1, §2

[4] = test system: PANC-1 cells; assay: 3D-TGA; assay type: cell-based, human; conditions: PANC-1, PAN, KRAS G12D
Description: as §1, §2

[5] = test system: LU99 cells; assay: 3D-TGA; assay type: cell-based, human; conditions: read-out: IC50 in 3D-TGA Ifebemetinib; LU99, LUN, KRAS G12C; agent alone
Description: as §1, §2

[6] = test system: HPAC cells; assay: 3D-TGA; assay type: cell-based, human
Description: as §1, §2

[7] = test system: HPAF-II cells; assay: 3D-TGA; assay type: cell-based, human
Description: as §1, §2

[8] = test system: Panc 10.05 cells; assay: 3D-TGA; assay type: cell-based, human; conditions: Panc 10.05, PAN, KRAS G12D
Description: as §1, §2

[9] = test system: HCC-44 cells; assay: 3D-TGA; assay type: cell-based, human; conditions: read-out: IC50 in 3D-TGA Ifebemetinib; HCC-44, LUN, KRAS G12C; agent alone
Description: as §1, §2

[10] = test system: NCI-H2122 cells; assay: 3D-TGA; assay type: cell-based, human; conditions: read-out: IC50 in 3D-TGA Ifebemetinib; NCI-H2122, LUN, KRAS G12C; agent alone
Description: as §1, §2

[11] = test system: CL-40 cells; assay: 3D-TGA; assay type: cell-based, human
Description: as §1, §2

[12] = test system: tumor models (cell lines); assay: Humanized 3D tumor growth assay (3D-TGA), tumor model panel / other cell lines; assay type: cell-based, human; conditions: read-out: IC50 in 3D-TGA Ifebemetinib, KRAS G12D, agent alone
Source text: The humanized 3D tumor growth assay (3D-TGA) is an extracellular matrix (ECM)-based, 3D tumor model that more faithfully mimics the human tumor microenvironment (TME) with the goal of improving translational fidelity to patients. See Casneuf T, et al., “Interleukin-6 is a potential therapeutic target in interleukin-6 dependent, estrogen receptor-α-positive breast cancer,” Breast Cancer (Dove Med Press). […] MEK inhibition in the 3D-TGA. […]
All cell lines were validated by IDEXX upon receipt and assay setup. See Appendix for full cell line list.
as §1, §2

[13] = test system: NCI-H1792 cells; assay: 3D-TGA; assay type: cell-based, human; conditions: read-out: IC50 in 3D-TGA Ifebemetinib; NCI-H1792, LUN, KRAS G12C; agent alone
[14] = test system: NCI-H358 cells; assay: 3D-TGA; assay type: cell-based, human; conditions: NCI-H358, LUN, KRAS G12C
[15] = test system: MIA PaCa-2 cells; assay: 3D-TGA; assay type: cell-based, human; conditions: KRAS G12C
[16] = test system: NCI-H2087 cells; assay: 3D-TGA; assay type: cell-based; conditions: Homo sapiens, NCI-H2087, LUN, NRAS Q61K, ALK S553A
Description: as §1, §2

[17] = test system: SW900 cells; assay: 3D-TGA; assay type: cell-based; conditions: Homo sapiens, SW900, LUN, KRAS G12V, ALK G103R
Description: as §1, §2

[18] = test system: CORL23 cells; assay: 3D-TGA; assay type: cell-based; conditions: Homo sapiens, COR-L23, CORL23, LUN, KRAS G12V, ALK R317T
Description: as §1, §2

[19] = test system: CFPAC-1 cells; assay: 3D-TGA; assay type: cell-based, human; conditions: CFPAC-1, PAN, KRAS G12V, read-out: IC50 in 3D-TGA, agent alone
Description: as §1, §2

[20] = test system: PSN-1 cells; assay: 3D-TGA; assay type: cell-based, human; conditions: PSN-1, PAN, KRAS G12R, read-out: IC50 in 3D-TGA, agent alone
Description: as §1, §2

[21] = test system: Capan-2 cells; assay: 3D-TGA; assay type: cell-based, human; conditions: Capan-2, PAN, KRAS G12V, read-out: IC50 in 3D-TGA, agent alone
Description: as §1, §2

[22] = test system: Capan-1 cells; assay: 3D-TGA; assay type: cell-based, human; conditions: Capan-1, PAN, KRAS G12V, read-out: IC50 in 3D-TGA, agent alone
Description: as §1, §2

[23] = test system: Panc 03.27 cells; assay: 3D-TGA; assay type: cell-based; conditions: Homo sapiens, PANC-03-27; Panc 03.27, PAN, KRAS G12V; read-out: IC50 in 3D-TGA, agent alone
Description: as §1, §2

[24] = test system: PA-TU-8988S cells; assay: 3D-TGA; assay type: cell-based; conditions: Homo sapiens, PaTu 8988s, PAN, KRAS G12V, read-out: IC50 in 3D-TGA, agent alone
Description: as §1, §2

[25] = test system: LS1034 cells; assay: 3D-TGA; assay type: cell-based, human; conditions: LS1034, COL, KRAS A146T, read-out: IC50 in 3D-TGA, agent alone
Description: as §1, §2

[26] = test system: Calu-6 cells; assay: 3D-TGA; assay type: cell-based, human; conditions: Calu-6, LUN, KRAS Q61K; read-out: IC50 in 3D-TGA, agent alone
Description: as §1, §2

[27] = test system: RCM-1 cells; assay: 3D-TGA; assay type: cell-based, human
Description: as §1, §2

[28] = test system: HT-29 cells; assay: 3D-TGA; assay type: cell-based, human
Description: as §1, §2

[29] = test system: SW626 cells; assay: 3D-TGA; assay type: cell-based, human
Description: as §1, §2

[30] = test system: A549 cells; assay: 3D-TGA; assay type: cell-based, human; conditions: A549, LUN, KRAS G12S; read-out: IC50 in 3D-TGA, agent alone
Description: as §1, §2

[31] = test system: SNU-1197 cells; assay: 3D-TGA; assay type: cell-based, human; conditions: read-out: IC50 in 3D-TGA, agent alone
Description: as §1, §2

[32] = test system: PA-TU-8988T cells; assay: 3D-TGA; assay type: cell-based, human; conditions: PAN, KRAS G12V, read-out: IC50 in 3D-TGA, agent alone
Description: as §1, §2

[33] = test system: pancreatic cancer; conditions: Phase III MPACT, 1st Line; cited from earlier work
[34] = read-out: IC50 in 3D-TGA Ifebemetinib, agent alone
[35] = read-out: IC50 in 3D-TGA Ifebemetinib, PAN, KRAS G12D, agent alone
[36] = read-out: IC50 in 3D-TGA Alectinib
[37] = Homo sapiens, read-out: IC50 in 3D-TGA, agent alone
[38] = Homo sapiens, PAN, KRAS G12D, read-out: IC50 in 3D-TGA, agent alone
[39] = RCM-1, COL, KRAS G12V, read-out: IC50 in 3D-TGA, agent alone
[40] = read-out: IC50 in 3D-TGA, agent alone
[41] = HT-29, COL, BRAF V600E, read-out: IC50 in 3D-TGA, agent alone
[42] = SW626, COL, KRAS G12V, read-out: IC50 in 3D-TGA, agent alone
[43] = PAN, KRAS G12D, read-out: IC50 in 3D-TGA, agent alone
[44] = CL-40, COL, KRAS G12D, read-out: IC50 in 3D-TGA, agent alone
[45] = MIA-PaCa2, PAN, read-out: IC50 in 3D-TGA, agent alone
[46] = agent alone, read-out: IC50 in 3D-TGA Crizotinib

- IC50 [1]: 0.5 to 1 µM
- IC50 [2, 34]: > 1 µM
- IC50 [3]: > 1 µM
- IC50 [4, 34]: > 1 µM
- IC50 [5]: > 1 µM
- IC50 [6, 35]: > 1 µM
- IC50 [7, 35]: > 1 µM
- IC50 [8, 34]: > 1 µM
- IC50 [9]: > 1 µM
- IC50 [10]: > 1 µM
- IC50 ([11]; read-out: IC50 in 3D-TGA Ifebemetinib, CL-40, COL, KRAS G12D, agent alone): > 1 µM
- IC50 ([12]; COLO 678, COL): > 1 µM
- IC50 ([12]; T3M-10, LUN): > 1 µM
- IC50 [13]: > 1 µM
- IC50 [14, 34]: > 1 µM
- IC50 ([15]; read-out: IC50 in 3D-TGA Ifebemetinib, MIA PaCa-2, PAN, agent alone): > 1 µM
Compound: ifebemetinib

- IC50 [16, 36]: 1 µM
- IC50 [17, 36]: 1 µM
- IC50 [18, 36]: 1 µM
Compound: CCc1cc2c(cc1N1CCC(N3CCOCC3)CC1)C(C)(C)c1[nH]c3cc(C#N)ccc3c1C2=O [Alectinib, alectinib]

Compound: O=c1[nH]cc(F)c(=O)[nH]1 [Compound 5-FU, 5-fluorouracil]
- IC50 ([2]; Homo sapiens, ASPC1, read-out: IC50 in 3D-TGA, agent alone): 1 µM
- IC50 ([19]; Homo sapiens): 1 µM
- IC50 ([20]; Homo sapiens, PSN1): 1 µM
- IC50 [4, 37]: 1 µM
- IC50 ([21]; Homo sapiens): 1 µM
- IC50 [6, 38]: 1 µM
- IC50 [7, 38]: 1 µM
- IC50 ([22]; Homo sapiens): 1 µM
- IC50 ([8]; Homo sapiens, Panc1005, read-out: IC50 in 3D-TGA, agent alone): 1 µM
- IC50 [23]: 1 µM
- IC50 [24]: 1 µM
- IC50 ([15]; Homo sapiens, MIA PaCa-2, MIA-PaCa2, PAN, read-out: IC50 in 3D-TGA, agent alone): 1 µM

Compound: O=C1[O][Pt]2([NH][C@@H]3CCCC[C@H]3[NH]2)[O]C1=O [Oxaliplatin, oxaliplatin]
- IC50 [25]: 1 µM
- IC50 [19]: 1 µM
- IC50 [26]: 1 µM
- IC50 [20]: 1 µM
- IC50 [27, 39]: 0.5 to 1 µM
- IC50 [4, 40]: 1 µM
- IC50 [28, 41]: 1 µM
- IC50 [29, 42]: 1 µM
- IC50 [21]: 1 µM
- IC50 [30]: 1 µM
- IC50 [6, 43]: 1 µM
- IC50 [7, 43]: 1 µM
- IC50 [22]: 0.1 to 0.5 µM
- IC50 [8, 40]: 1 µM
- IC50 ([31]; SNU-1197, COL, KRAS G12D): 1 µM
- IC50 [11, 44]: 0.1 to 0.5 µM
- IC50 [32]: 1 µM
- IC50 [14, 40]: 1 µM
- IC50 [15, 45]: 1 µM

- IC50 [16, 46]: 1 µM
- IC50 [17, 46]: 1 µM
- IC50 [18, 46]: 1 µM
Compound: C[C@@H](Oc1cc(-c2cnn(C3CCNCC3)c2)cnc1N)c1c(Cl)ccc(F)c1Cl [Crizotinib, crizotinib]

Compound: Nc1ccn([C@@H]2O[C@H](CO)[C@@H](O)C2(F)F)c(=O)n1 [Gemcitabine, gemcitabine]
- IC50 ([25]; Homo sapiens, LS-1034): 0.5 to 1 µM
- IC50 ([27]; Homo sapiens, RCM-1, read-out: IC50 in 3D-TGA, agent alone): 0.5 to 1 µM
- IC50 ([28]; Homo sapiens, HT-29, read-out: IC50 in 3D-TGA, agent alone): < 0.05 µM
- IC50 ([29]; Homo sapiens, SW626, read-out: IC50 in 3D-TGA, agent alone): 0.1 to 0.5 µM
- IC50 ([31]; Homo sapiens): 0.1 to 0.5 µM
- IC50 [11, 37]: < 0.05 µM
- ORR [33]: 7%

Compound: CCc1c2c(nc3ccc(O)cc13)-c1cc3c(c(=O)n1C2)COC(=O)[C@]3(O)CC [SN-38]
- IC50 [25]: < 0.05 µM
- IC50 [19]: < 0.05 µM
- IC50 [27, 39]: < 0.05 µM
- IC50 [4, 40]: < 0.05 µM
- IC50 [28, 41]: < 0.05 µM
- IC50 [29, 42]: < 0.05 µM
- IC50 [21]: < 0.05 µM
- IC50 [6, 43]: < 0.05 µM
- IC50 [7, 43]: < 0.05 µM
- IC50 [22]: < 0.05 µM
- IC50 [8, 40]: < 0.05 µM
- IC50 ([31]; SNU-1197, COL, KRAS G12D): < 0.05 µM
- IC50 [11, 44]: < 0.05 µM
- IC50 [32]: < 0.05 µM
- IC50 [15, 45]: < 0.05 µM
